Results: patent US6686496B1, “Treatment of myeloma” (University of Central Florida, priority 2001, dated 2004)

How the values were obtained:
[1] = system: human myeloma cells (ATCC CCL155); experiment: Cytotoxicity assay: growth inhibition of CCL155 cells, MTS/PMS readout; format: cell-based; details: Table 1, approximately 48 hours with test compound, concentration not given
Procedure: The anticancer activity against human myeloma of the novel compounds (as earlier reported) was realized by the following procedure which determines the inhibitory effect of test samples on the growth of human myeloma cells.
[…]
(ATCC CCL155) The CCL155 cells are grown in RPMI 1640 media+20% Fetal bovine serum+4.5 g/L glucose+10 mM HEPES+1.0 mM sodium pyruvate+1% Antibiotic/Antimycotic for approximately 48 hours at 37° C./5% CO2 in the presence of the test compound.
Growth/Non-Growth of the cells (e.g., cell density) is determined using Promega's MTS/PMS assay system. MTS (3-(4,5-dimethylthiazol-2-yl)-5-(3-carboxymethoxyphenyl)-2-(4-sulfophenyl)-2H-tetrazolium, inner salt) is an aqueous compound that is reduced to soluble formazan by the presence of NADH formed by dehydrogenases present within the CCL155 cells. The absorbance of the formazan can be measured at 490 nm and is directly proportional to the number of living cells present in the culture. PMS (Phenazine Methosulfate) is added an electron coupling reagent and greatly increases the rate of reduction.
To facilitate a full understanding of the procedure the following definitions are offered:
Test wells—wells containing test sample and Diluted CCL155 cells
Test values—absorbance of test wells
Blank wells—wells containing test sample and CCL155 media (C155-01S); used to obtain background absorbance due to test sample
Blank values—absorbance of blank wells
Negative Control—maximal cell growth; results of test samples will be expressed as a percent of the Negative Control
Positive Control—known inhibitor of CCL155 cells; used to validate assay system
Matrix—solvent that the samples are prepared/diluted in […]
Blank values will be determined for each sample to account for any color contribution due to the sample itself. […] After completion of MTS/PMS reaction blank values will be subtracted from the test value to obtain a net absorbance that will be used to calculate cell density. […]
In order to establish the accuracy of this assay a Positive Control consisting of 50 μM Methotrexate […] of the Negative Control (CCL155 cells are somewhat resistant to methotrexate) is utilized.
In order to establish the accuracy of this assay a Positive Control consisting of 50 μM Methotrexate should show less than 75% of the net absorbance of the Negative Control is utilized.

[2] = Animal toxicity bioassay: acute toxicity, intraperitoneal injection, LD50 by Litchfield and Wilkinson; format: in vivo; details: both sexes, mouse, in vivo, ip, white mice, observed 14 days
Procedure: (§1) Acute toxicity was studied on white mice of both sexes with weight ranging between 18-26 grams under intraperitoneal injection of 2% solution of tested compound in starch (the compound was dissolved in starch slime and injected) on the basis of 0.1 ml of solution per 10 g of the animal weight. Each dose was tested on the group of 6 animals that were observed during 14 days period.

[3] = Solubility in solvents and water
[4] = system: white mice; experiment: Animal toxicity bioassay: acute toxicity, intraperitoneal injection, LD50 by Litchfield and Wilkinson; format: in vivo; details: Table 1, observed 14 days
Procedure: as §1

[5] = system: mice; details: cited from earlier work
[6] = Stability in solutions; format: physicochemical; details: solution heated or stored for a long time; forms OF-12

Row | SMILES | Activity (ATCC CCL155) [1] [%] | LD50 at 14 days [2] [mg/kg] | Solubility in DMSO, DMFA, dichloroethane, acetonitrile [3] | Solubility in water [3] | also measured
1 | COC(=O)/C(=C/C(=O)c1ccccc1)NN=C1c2ccccc2-c2ccccc21 [1F-04, 2-(N′-Fluoren-9-ylidene-hydrazino)-4-oxo-4-phenyl-but-2-enoic acid methyl ester] | 93 | > 1000 | highly soluble | insoluble | 
2 | CCOc1ccc(/C(Cl)=C/C(=N\N=C2c3ccccc3-c3ccccc32)C(=O)OC)cc1 [3F-19, 4-Chloro-4-(4-ethoxy-phenyl)-2-(fluoren-9-ylidene-hydrazono)-but-3-enoic acid methyl ester] | 100 |  |  |  | LD50 [4]: >200 mg/kg
3 | N[C@@H](Cc1ccc(N(CCCl)CCCl)cc1)C(=O)O [Melphalan] |  |  |  |  | Toxicity: LD50 in mice [5]: 23 mg/kg
4 | COC(=O)C(=CC(=O)C(C)(C)C)NN=C1c2ccccc2-c2ccccc21 [OF-06, 2-(N′-Fluoren-9-ylidene-hydrazino)-5,5-dimethyl-4-oxo-hex-2-enoic acid methyl ester] | 82 | > 3000 | highly soluble |  | LD50 [4]: >3000 mg/kg; Solubility in ethanol, tetrachloromethane ([3]; ethanol, tetrachloromethane): slightly soluble; Solubility in hexane ([3]; hexane): insoluble
5 | COC(=O)C(=CC(=O)c1ccc(Cl)cc1)NN=C1c2ccccc2-c2ccccc21 [OF-07, 4-(4-Chloro-phenyl)-2-(N′-fluoren-9-ylidene-hydrazino)-4-oxo-but-2-enoic acid methyl ester] |  | > 750 | highly soluble | insoluble | 
6 | COC(=O)/C(=C/C(=O)c1ccccc1)N/N=C(\c1ccccc1)c1ccccc1Br [OF-09, 2-{N′-[(2-Bromo-phenyl)-phenyl-methylene]-hydrazino}-4-oxo-4-phenyl-but-2-enoic acid methyl ester] |  | > 5000 | highly soluble | insoluble | 
7 | COC(=O)/C(=C/C(=O)c1ccccc1)N/N=C(\c1ccccc1)c1ccc(N(C)C)cc1 [OF-10, 2-{N′-[(4-Dimethylamino-phenyl)-phenyl-methylene]-hydrazino}-4-oxo-4-phenyl-but-2-enoic acid methyl ester] |  | > 1500 | highly soluble | insoluble | Solubility in chloroform [3]: highly soluble
8 | CCOc1ccc(C(=O)CC(O)(NN=C2c3ccccc3-c3ccccc32)C(=O)OC)cc1 (stereo not drawn) [OF-13, 4-(4-Ethoxy-phenyl)-2-(N′-fluoren-9-ylidene-hydrazino)-2-hydroxy-4-oxo-butyric acid methyl ester] | 99 | > 1500 |  |  | Stability in solutions [6]: not stable in solutions and decomposes quickly when the solution is heated or stored for a long time
9 | COC(=O)/C(=C/C(=O)c1ccccc1)N/N=C(\C)c1ccc(Cl)cc1 [OF-20, 2-{N′-[1-(4-Chloro-phenyl)-ethylidene]-hydrazino}-4-oxo-4-phenyl-but-2-enoic acid methyl ester] |  | > 250 | highly soluble | insoluble | Solubility in chloroform [3]: highly soluble
